Test results reported in US20110190245A1, “NANOSUSPENSION WITH ANTIFUNGAL MEDICATION TO BE ADMINISTERED VIA INHALATION WITH IMPROVED IMPURITY PROFILE AND SAFETY” (priority 2008, published 2011).

System: A. fumigatus
Test: Second experiment: survival of immune-suppressed balb-c mice infected intranasally with A. fumigatus conidia
Assay type: in vivo, Aspergillus fumigatus
Design: animals that had died by day 6 after infection: dose or concentration left out as unconfirmed
Procedure: In a second experiment, male balb-c mice were utilized. The animals of all groups were immune-suppressed using 100 mg/kg body weight cyclophosphamide at day −4, −1, 0, 2, 5 and 8. On day −1, the animals received 100 mg/kg cyclophosphamide i.p. and 200 mg/kg cortisone acetate subcutaneous (24±2 hours before infection). Additionally, the animals were treated by inhalation of itraconazole using the same inhalation device as described in the study above. At day 0, the animals were infected intranasally with 2.5×104 A. fumigatus conidia.
Additionally, one group of mice used as reference group was treated with Amphotericin B i.p. using 3 mg/kg daily.
The drug effect was assessed as the number of surviving animals. As expected, 9 out of 12 control animals had already died on day 6 after infection and the remaining animals died with the exception of one until day 9. For animals treated as decribed above, i.e. using the 10% aerosol of itraconazole twice daily, a strong effect was seen.

## C[C@@H]1[C@H](O)[C@@H](C)/C=C/C=C/C=C/C=C/C=C/C=C/C=C/[C@H](O[C@@H]2O[C@H](C)[C@@H](O)[C@H](N)[C@@H]2O)C[C@@H]2O[C@](O)(C[C@@H](O)C[C@@H](O)[C@H](O)CC[C@@H](O)C[C@@H](O)CC(=O)O[C@H]1C)C[C@H](O)[C@H]2C(=O)O [Amphothericin B, Amphotericin B]
12 per group, control animals
  animals that had died by day 6 after infection: 3
14 days observation, itraconazole 10% aerosol twice daily, Amphotericin B i.p. 3 mg/kg daily
  animals that had died at the end of the observation period: 9 out of 12
